Data taken from US10485235B2, “Aryloxypyrimidinyl ethers as herbicides” (FMC Corporation, priority 2015, dated 2019).

Experiments:
Assay type in all cases: in vivo
[1] = tested on: galium (catchweed bedstraw, Galium aparine); assay: Test A postemergence, galium; conditions: postemergence, 0 to 100 scale, 0 is no effect, 100 is complete control, approximately 10 days
Method in brief: (§1)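 Compounds, formulated in a surfactant-containing solvent mixture that is non-phytotoxic, are sprayed onto soil after seeding (preemergence) or onto young plants, one to two leaves and 2 to 10 cm high (postemergence). Response is scored visually after around 10 days, where 0 means no effect and 100 means complete control.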

[2] = tested on: sedge, umbrella (small-flower umbrella sedge, Cyperus difformis); assay: Test B flooded paddy test, umbrella sedge; conditions: 250 g ai/ha, Flood; visual rating after 13 to 15 days; scale 0 to 100, 0 is no effect, 100 is complete control
Method in brief: (§2)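 Seedlings at the 2-leaf stage are flooded to 3 cm and treated via the paddy water. Greenhouse plants are compared with controls after 13 to 15 days and given a 0 (no effect) to 100 (complete control) rating.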

[3] = tested on: ryegrass, Italian (Italian ryegrass, Lolium multiflorum); assay: Test A postemergence, Italian ryegrass; conditions: postemergence, 0 to 100 scale, 0 is no effect, 100 is complete control, approximately 10 days
Method in brief: as §1

[4] = tested on: ragweed (common ragweed, Ambrosia elatior); assay: Test A preemergence, ragweed; conditions: Preemergence, 0 to 100 scale (0 no effect, 100 complete control)
Method in brief: as §1

[5] = tested on: kochia (Kochia scoparia); assay: Test A preemergence, kochia; conditions: Preemergence, 0 to 100 scale (0 no effect, 100 complete control)
Method in brief: as §1

[6] = tested on: barnyardgrass (Echinochloa crus-galli); assay: Test A preemergence, barnyardgrass; conditions: Preemergence, 0 to 100 scale (0 no effect, 100 complete control)
Method in brief: as §1

[7] = tested on: foxtail, giant (giant foxtail, Setaria faberii); assay: Test A preemergence, giant foxtail; conditions: Preemergence, 0 to 100 scale (0 no effect, 100 complete control)
Method in brief: as §1

[8] = tested on: corn (Zea mays); assay: Test A postemergence, corn; conditions: postemergence, 0 to 100 scale, 0 is no effect, 100 is complete control, approximately 10 days
Method in brief: as §1

[9] = tested on: pigweed (Amaranthus retroflexus); assay: Test A postemergence, pigweed; conditions: postemergence, 0 to 100 scale, 0 is no effect, 100 is complete control, approximately 10 days
Method in brief: as §1

[10] = tested on: ragweed (common ragweed, Ambrosia elatior); assay: Test A postemergence, ragweed; conditions: postemergence, 0 to 100 scale, 0 is no effect, 100 is complete control, approximately 10 days
Method in brief: as §1

[11] = tested on: blackgrass (Alopecurus myosuroides); assay: Test A postemergence, blackgrass; conditions: postemergence, 0 to 100 scale, 0 is no effect, 100 is complete control, approximately 10 days
Method in brief: as §1

[12] = tested on: barnyardgrass (Echinochloa crus-galli); assay: Test A postemergence, barnyardgrass; conditions: postemergence, 0 to 100 scale, 0 is no effect, 100 is complete control, approximately 10 days
Method in brief: as §1

[13] = tested on: rice (Oryza sativa); assay: Test B flooded paddy test, rice; conditions: 250 g ai/ha, Flood; visual rating after 13 to 15 days; scale 0 to 100, 0 is no effect, 100 is complete control
Method in brief: as §2

[14] = tested on: barnyardgrass (Echinochloa crus-galli); assay: Test B flooded paddy test, barnyardgrass; conditions: 250 g ai/ha, Flood; visual rating after 13 to 15 days; scale 0 to 100, 0 is no effect, 100 is complete control
Method in brief: as §2

[15] = tested on: kochia (Kochia scoparia); assay: Test A postemergence, kochia; conditions: postemergence, 0 to 100 scale, 0 is no effect, 100 is complete control, approximately 10 days
Method in brief: as §1

[16] = tested on: pigweed (Amaranthus retroflexus); assay: Test A preemergence, pigweed; conditions: Preemergence, 0 to 100 scale (0 no effect, 100 complete control)
Method in brief: as §1

[17] = tested on: wheat (Triticum aestivum); assay: Test A postemergence, wheat; conditions: postemergence, 0 to 100 scale, 0 is no effect, 100 is complete control, approximately 10 days
Method in brief: as §1

[18] = tested on: ducksalad (Heteranthera limosa); assay: Test B flooded paddy test, ducksalad; conditions: 250 g ai/ha, Flood; visual rating after 13 to 15 days; scale 0 to 100, 0 is no effect, 100 is complete control
Method in brief: as §2

[19] = tested on: ryegrass, Italian (Italian ryegrass, Lolium multiflorum); assay: Test A preemergence, Italian ryegrass; conditions: Preemergence, 0 to 100 scale (0 no effect, 100 complete control)
Method in brief: as §1

[20] = tested on: foxtail, giant (giant foxtail, Setaria faberii); assay: Test A postemergence, giant foxtail; conditions: postemergence, 0 to 100 scale, 0 is no effect, 100 is complete control, approximately 10 days
Method in brief: as §1

Row | Structure (SMILES) | Plant response rating, Galium ([1]; 31 g ai/ha) | Plant response rating, Galium ([1]; 125 g ai/ha) | Plant response rating, Sedge, Umbrella [2] | Plant response rating, Ryegrass, Italian ([3]; 31 g ai/ha) | Plant response rating, Ryegrass, Italian ([3]; 125 g ai/ha) | Plant response rating, Ragweed ([4]; 31 g ai/ha) | Plant response rating, Ragweed ([4]; 125 g ai/ha) | Plant response rating, Kochia ([5]; 31 g ai/ha) | Plant response rating, Kochia ([5]; 125 g ai/ha) | Plant response rating, Barnyardgrass ([6]; 31 g ai/ha) | Plant response rating, Barnyardgrass ([6]; 125 g ai/ha) | Plant response rating, Foxtail, Giant ([7]; 31 g ai/ha) | Plant response rating, Foxtail, Giant ([7]; 125 g ai/ha) | Plant response rating, Corn ([8]; 31 g ai/ha) | Plant response rating, Corn ([8]; 125 g ai/ha) | Plant response rating, Pigweed ([9]; 31 g ai/ha) | Plant response rating, Pigweed ([9]; 125 g ai/ha) | Plant response rating, Ragweed ([10]; 31 g ai/ha) | Plant response rating, Ragweed ([10]; 125 g ai/ha) | Plant response rating, Blackgrass ([11]; 31 g ai/ha) | also measured
1 | FC(F)(F)CCCOc1c(Br)cccc1Oc1ncc(Cl)cn1 [Compound 31] | 40 | 90 | 100 | 10 | 50 | 0 | 10 | 0 | 70 | 10 | 60 | 40 | 100 | 10 | 20 | 80 | 100 | 0 | 10 | 20 | Plant response rating, Blackgrass ([11]; 125 g ai/ha): 40; Plant response rating, Barnyardgrass ([12]; 31 g ai/ha): 20; Plant response rating, Barnyardgrass ([12]; 125 g ai/ha): 70; Plant response rating, Rice [13]: 25; Plant response rating, Barnyardgrass [14]: 25; Plant response rating, Kochia ([15]; 31 g ai/ha): 90; Plant response rating, Kochia ([15]; 125 g ai/ha): 100; Plant response rating, Pigweed ([16]; 31 g ai/ha): 70; Plant response rating, Pigweed ([16]; 125 g ai/ha): 100; Plant response rating, Wheat ([17]; 31 g ai/ha): 0; Plant response rating, Wheat ([17]; 125 g ai/ha): 10; Plant response rating, Ducksalad [18]: 75; Plant response rating, Ryegrass, Italian ([19]; 31 g ai/ha): 0; Plant response rating, Ryegrass, Italian ([19]; 125 g ai/ha): 40; Plant response rating, Foxtail, Giant ([20]; 31 g ai/ha): 20; Plant response rating, Foxtail, Giant ([20]; 125 g ai/ha): 50
2 | N#Cc1cccc(Oc2ncc(Cl)cn2)c1OCCCCC(F)(F)F [Compound 32] | 70 | 100 | 100 | 10 | 30 | 0 | 10 | 30 | 90 | 30 | 100 | 100 | 100 | 10 | 20 | 100 | 100 | 10 | 10 | 30 | Plant response rating, Blackgrass ([11]; 125 g ai/ha): 50; Plant response rating, Barnyardgrass ([12]; 31 g ai/ha): 60; Plant response rating, Barnyardgrass ([12]; 125 g ai/ha): 100; Plant response rating, Rice [13]: 40; Plant response rating, Barnyardgrass [14]: 30; Plant response rating, Kochia ([15]; 31 g ai/ha): 100; Plant response rating, Kochia ([15]; 125 g ai/ha): 100; Plant response rating, Pigweed ([16]; 31 g ai/ha): 100; Plant response rating, Pigweed ([16]; 125 g ai/ha): 100; Plant response rating, Wheat ([17]; 31 g ai/ha): 20; Plant response rating, Wheat ([17]; 125 g ai/ha): 30; Plant response rating, Ducksalad [18]: 90; Plant response rating, Ryegrass, Italian ([19]; 31 g ai/ha): 10; Plant response rating, Ryegrass, Italian ([19]; 125 g ai/ha): 30; Plant response rating, Foxtail, Giant ([20]; 31 g ai/ha): 50; Plant response rating, Foxtail, Giant ([20]; 125 g ai/ha): 80
